≈ marks a conversion by molar mass, not a printed value. Bridge positions count the residues as written; N and C are the ends. Square brackets hold non-standard residues; d marks the D form. Ends that are not written are not given here. Peptide text beside a SMILES is read from it. 12Ado = NCCCCCCCCCCCC(=O)O
Legend:
[1] = tested on: Enterococcus faecalis (ATCC 29212); assay: microbe, parasite or virus in culture; assay type: cell-based
[2] = Hydrophobicity estimation by HPLC reversed-phase C18 elution; assay type: physicochemical; settings: HPLC-RP C18, linear acetonitrile gradient 1% per minute
Description: HPLC chromatograms were performed on C18 columns (Vydak, 250 mm×4.6 or 10 mm) using a linear gradient of acetonitrile in water (1% per minute), both solvents contained 0.1% trifluoroacetic acid. The purified polymers were subjected to mass spectrometry (ZQ Waters) to confirm their composition and stored as a lyophilized powder at −20° C. Prior to being tested, fresh solutions were prepared in water, mixed by vortex, solubilized by ultrasound, centrifuged and then diluted in the appropriate medium.
In order to estimate the hydrophobicity of each polymer, the polymer was eluted with a linear gradient of acetonitrile (1% per minute) on an HPLC reversed-phase C18 column, and the percent of acetonitrile at which the polymer was eluted was used for hydrophobicity estimation (see, “ACN (%)” in Table 3 below).
“ACN (%)” represents the percent of acetonitrile in the HPLC-RP gradient mobile phase at which the polymer was eluted and which corresponds to the estimated hydrophobicity of the polymer (column 4 in Table 3);

[3] = tested on: Pseudomonas aeruginosa (ATCC 9027); assay: microbe, parasite or virus in culture; settings: for MIC P.a.: ATCC 9027
Description: (§1) Minimal inhibitory concentrations (MICs) were determined by microdilution susceptibility testing in 96-well plates using inocula of 10^6 bacteria per ml.
(§2) Cell populations were evaluated by optical density measurements at 600 nm and were calibrated against a set of standards. Hundred (100) μl of a bacterial suspension were added to 100 μl of culture medium (control) or to 100 μl of culture medium containing various polymer concentrations in 2-fold serial dilutions.
(§3) Alternatively, MICs were determined using the microbroth dilution assay recommended by the Clinical and Laboratory Standards Institute (CLSI) using two-fold serial dilutions in cation-adjusted Mueller-Hinton broth (CAMHB).
“MIC P.a.” represents the minimal inhibitory concentration of each tested polymer in μM for P. aeruginosa, measured as described hereinabove for the antibacterial activity assay (column 7 in Table 3);

[4] = tested on: Escherichia coli (ATCC 35218); assay: microbe, parasite or virus in culture; settings: for MIC E.c.: ATCC 35218
Description: as §1, §2, §3
“MIC E.c.” represents the minimal inhibitory concentration of each tested polymer in μM for E. coli, measured as described hereinabove in the antibacterial activity assay (column 5 in Table 3);

[5] = tested on: methicillin resistant Staphylococcus aureus (CI 15903); assay: microbe, parasite or virus in culture; settings: for MIC MR S.a.: methicillin resistant (CI 15903); for MIC: Staphylococcus aureus, read-out: MIC MR S.a.
Description: as §1, §2, §3
“MIC MR S.a.” represents the minimal inhibitory concentration of each tested polymer in μM for methicillin-resistant S. aureus, measured as described hereinabove for the antibacterial activity assay of antibiotic-resistant bacteria (column 8 in Table 3);

[6] = tested on: Bacillus cereus (ATCC 11778)
Description: as §1, §2, §3
“MIC B.c.” represents the minimal inhibitory concentration of each tested polymer in μM for Bacillus cereus, measured as described hereinabove for the antibacterial activity assay (column 9 in Table 3); and […]

Molecule | MIC ([1]; ATCC 29212) | ACN (%) (percent of acetonitrile at which the polymer was eluted; estimated hydrophobicity) [2] | MIC P.a. [3] | MIC E.c. [4] | MIC MR S.a. [5] | also measured
NCCCC[C@@H]1NC(=O)CCCCCCCCCCCNC(=O)[C@H](CCCCN)NC(=O)CCCCCCCCCCCNC(=O)[C@H](CCCCN)NC(=O)CCCCCCCCCCCNC(=O)[C@H](CCCCN)NC(=O)[C@H](CCCCN)NC(=O)CCCCCCCCCCCNC(=O)[C@H](CCCCN)NC(=O)CCCCCCCCCCCNC1=O [Polymer 2, Cyclic-K(NC12K)5] (cyclo(K[12Ado]K[12Ado]K[12Ado]K[12Ado]K[12Ado]K)) | 6.25 µM (≈ 11 µg/mL) | 46.6% | 12.5 µM (≈ 21.9 µg/mL) | 12.5 µM (≈ 21.9 µg/mL) | 6.25 µM (≈ 11 µg/mL) | –
NCCCCC1NC(=O)CCCCCCCCCCCNC(=O)C(CCCCN)NC(=O)CCCCCCCCCCCNC1=O (stereo not shown) [Polymer 3, Cyclic-(NC12K)2] | >50 µM | 49.7% | >50 µM | – | – | –
NCCCCC1NC(=O)CCCCCCCCCCCNC(=O)C(CCCCN)NC(=O)CCCCCCCCCCCNC(=O)C(CCCCN)NC(=O)CCCCCCCCCCCNC1=O (stereo not shown) [Polymer 4, Cyclic-(NC12K)3] | – | 47.0% | >50 µM | >50 µM | 12.5 µM (≈ 12.2 µg/mL) | MIC B.c [6]: >50 µM
NCCCCC1NC(=O)CCCCCCCCCCCNC(=O)C(CCCCN)NC(=O)CCCCCCCCCCCNC(=O)C(CCCCN)NC(=O)CCCCCCCCCCCNC(=O)C(CCCCN)NC(=O)CCCCCCCCCCCNC1=O (stereo not shown) [Polymer 5, Cyclic-(NC12K)4] | – | 47.4% | >50 µM | >50 µM | >50 µM | MIC B.c [6]: >50 µM
NCCCCC1NC(=O)CCCCCCCCCCCNC(=O)C(CCCCN)NC(=O)CCCCCCCCCCCNC(=O)C(CCCCN)NC(=O)CCCCCCCCCCCNC(=O)C(CCCCN)NC(=O)CCCCCCCCCCCNC(=O)C(CCCCN)NC(=O)CCCCCCCCCCCNC1=O (stereo not shown) [Polymer 6, Cyclic-(NC12K)5] | – | 47.7% | 50 µM (≈ 81.4 µg/mL) | – | – | MIC B.c [6]: >50 µM
NCCCCC1NC(=O)CCCCCCCCCCCNC(=O)C(CCCCN)NC(=O)C(CCCCN)NC(=O)CCCCCCCCCCCNC(=O)C(CCCCN)NC1=O (stereo not shown) [Polymer 7, Cyclic-(KNC12K)2] (cyclo([12Ado]KK[12Ado]KK); configuration not given here) | 50 µM (≈ 45.4 µg/mL) | 40.7% | 25 µM (≈ 22.7 µg/mL) | – | – | –
NCCCC[C@@H]1NC(=O)CCCCCCCCCCCNC(=O)[C@H](CCCCN)NC(=O)[C@H](CCCCN)NC(=O)CCCCCCCCCCCNC(=O)[C@H](CCCCN)NC(=O)[C@H](CCCCN)NC(=O)CCCCCCCCCCCNC(=O)[C@H](CCCCN)NC1=O [Polymer 8, Cyclic-(KNC12K)3] (cyclo(K[12Ado]KK[12Ado]KK[12Ado]K)) | 25 µM (≈ 34 µg/mL) | 41.7% | 12.5 µM (≈ 17 µg/mL) | 25 µM (≈ 34 µg/mL) | 25 µM (≈ 34 µg/mL) | –
NCCCCC1NC(=O)CCCCCCCCCCCNC(=O)C(CCCCN)NC(=O)C(CCCCN)NC(=O)CCCCCCCCCCCNC1=O (stereo not shown) [Polymer 9, Cyclic-NC12KKNC12K] (cyclo([12Ado]K[12Ado]KK); configuration not given here) | 25 µM (≈ 19.5 µg/mL) | 42.7% | 50 µM (≈ 39 µg/mL) | – | – | –
NCCCC[C@@H]1NC(=O)CCCCCCCCCCCNC(=O)[C@H](CCCCN)NC(=O)[C@H](CCCCN)NC(=O)CCCCCCCCCCCNC(=O)[C@H](CCCCN)NC(=O)[C@H](CCCCN)NC(=O)CCCCCCCCCCCNC1=O [Polymer 10, Cyclic-NC12K(KNC12K)2] (cyclo([12Ado]KK[12Ado]KK[12Ado]K)) | 6.25 µM (≈ 7.71 µg/mL) | 43.1% | 12.5 µM (≈ 15.4 µg/mL) | 12.5 µM (≈ 15.4 µg/mL) | 12.5 µM (≈ 15.4 µg/mL) | –
NCCCC[C@@H]1NC(=O)CCCCCCCCCCCNC(=O)[C@H](CCCCN)NC(=O)[C@H](CCCCN)NC(=O)[C@H](CCCCN)NC(=O)CCCCCCCCCCCNC(=O)[C@H](CCCCN)NC1=O [Polymer 11, Cyclic-KNC12KKKNC12K] (cyclo(K[12Ado]KKK[12Ado]K)) | >50 µM | 38% | 12.5 µM (≈ 12.9 µg/mL) | >50 µM | >50 µM | –
NCCCC[C@@H]1NC(=O)CCCCCCCCCCCNC(=O)[C@H](CCCCN)NC(=O)[C@H](CCCCN)NC(=O)[C@H](CCCCN)NC(=O)CCCCCCCCCCCNC(=O)[C@H](CCCCN)NC(=O)[C@H](CCCCN)NC1=O [Polymer 12, Cyclic-KNC12KKKNC12KK] (cyclo(K[12Ado]KKK[12Ado]KK)) | >50 µM | 35% | >50 µM | >50 µM | >50 µM | –
CCCCCCCCCCCC(=O)NCCCCC(N)C(=O)NCCCCCCCCCCCC(=O)NCCCCC(N)C(N)=O (stereo not shown) [Polymer 13, C12K(ε)NC12K(ε)NH2] | 12.5 µM (≈ 8.16 µg/mL) | 54.4% | >50 µM | 12.5 µM (≈ 8.16 µg/mL) | 12.5 µM (≈ 8.16 µg/mL) | –
CC(C)C[C@H](NC(=O)CNC(=O)CNC(=O)[C@@H](N)CCCNC(=N)N)C(=O)N[C@H]1CSSC[C@@H](C(=O)N[C@H](C(=O)NCC(=O)N[C@@H](CCCNC(=N)N)C(N)=O)C(C)C)NC(=O)[C@H](C(C)C)NC(=O)[C@@H]2CSSC[C@H](NC(=O)[C@H](Cc3ccc(O)cc3)NC1=O)C(=O)N[C@@H](CCCNC(=N)N)C(=O)NCC(=O)N[C@@H](CCCNC(=N)N)C(=O)N[C@@H](Cc1ccccc1)C(=O)N2 [Ref. 2, IB-367, reference compound] (H-RGGLCYCRGRFCVCVGR-NH2; disulfide 5-14, 7-12) | – | 45% | – | – | – | –
CC[C@H](C)[C@H](NC(=O)[C@H](CCCCN)NC(=O)[C@H](CCC(=O)O)NC(=O)[C@H](CCCCN)NC(=O)[C@H](CO)NC(=O)[C@H](CCCCN)NC(=O)[C@H](CCCNC(=N)N)NC(=O)[C@H](Cc1ccccc1)NC(=O)[C@H](Cc1ccccc1)NC(=O)[C@H](CC(=O)O)NC(=O)CNC(=O)[C@H](CC(C)C)NC(=O)[C@@H](N)CC(C)C)C(=O)NCC(=O)N[C@@H](CCCCN)C(=O)N[C@@H](CCC(=O)O)C(=O)N[C@@H](Cc1ccccc1)C(=O)N[C@@H](CCCCN)C(=O)N[C@@H](CCCNC(=N)N)C(=O)N[C@H](C(=O)N[C@H](C(=O)N[C@@H](CCC(N)=O)C(=O)N[C@@H](CCCNC(=N)N)C(=O)N[C@H](C(=O)N[C@@H](CCCCN)C(=O)N[C@@H](CC(=O)O)C(=O)N[C@@H](Cc1ccccc1)C(=O)N[C@@H](CC(C)C)C(=O)N[C@@H](CCCNC(=N)N)C(=O)N[C@@H](CC(N)=O)C(=O)N[C@@H](CC(C)C)C(=O)N[C@H](C(=O)N1CCC[C@H]1C(=O)N[C@@H](CCCNC(=N)N)C(=O)N[C@H](C(=O)N[C@@H](CCC(=O)O)C(=O)N[C@@H](CO)C(=O)O)[C@@H](C)O)C(C)C)[C@@H](C)CC)C(C)C)[C@@H](C)CC [Ref. 4, LL37, reference compound] | – | 61% | – | – | – | MIC ([1]; Enterococcus faecalis): 37.5 µM (≈ 169 µg/mL)
C[C@@H](O)[C@H]1C(=O)N2C(C(=O)O)=C(SCCN=CN)C[C@H]12 [Ref. 6, Imipenem, reference compound] | – | – | – | – | – | MIC ([1]; Enterococcus faecalis, ATCC29212): < 0.03 µM; MIC [5]: > 50 µM
CN(C)[C@@H]1C(O)=C(C(N)=O)C(=O)[C@@]2(O)C(O)=C3C(=O)c4c(O)cccc4[C@@](C)(O)[C@H]3C[C@@H]12 [Ref. 7, Tetracycline, reference compound] | – | – | – | – | – | MIC ([3]; Pseudomonas aeruginosa, ATCC9027, read-out: MIC P.a.): > 50 µM; MIC ([4]; Escherichia coli, ATCC35218, read-out: MIC E.c.): 1.8 µM (≈ 0.8 µg/mL); MIC [5]: 0.4 µM (≈ 0.178 µg/mL)
ALWKTLLKKVLKAAAK-NH2 (C-terminus assumed) [Ref. 3, K4S4(1-16), reference compound] | 3.1 µM | 47% | – | – | – | –
GIGKFLKKAKKFGKAFVKILKK-NH2 (C-terminus assumed) [Ref. 1, MSI-78, reference compound] | 37.5 µM | 44% | – | – | – | –

From patent US8470770B2, “Antimicrobial agents” (priority 2007, dated 2013)
